Data on 1 molecule can be found in patent US8778961B2, “O-methylated rapamycin derivatives for alleviation and inhibition of lymphoproliferative disorders” (The Trustees of the University of Pennsylvania, priority 2000, dated 2014).

Experiment [1] deals with HTLV-I (+) T-cell lines ATL-2, C10MJ2, HUT102B. The following applies: Zhang et al., 1999, Leukemia Res. 23:373-384; cited from earlier work.
The subject of experiment [2] is PTLD-like B cell lines 20A, A1, A2D6, and LCL. Nature of the experiment: cell cycle progression by propidium iodide flow cytometry. Conditions: 48 hours. The format is cell-based, human. The procedure:
The cell lines to be examined were cultured with several concentrations of SDZ RAD (0 to 10 nanomolar) for 24-48 hours. The cells were washed with DPBS and stain solution (pH 7.2) containing 3% PEG 6000, 50 micrograms per milliliter DNA fluorochrome propidium iodide (PI; Calbiochem, San Diego, Calif.), annexin V-FITC as described (Douglas et al., 1998, Cytometry 32:57-65) 0.1% (v/v) TRITON™ X (Sigma, St. Louis, Mo.), 4 millimolar citrate buffer pH 7.8, and 360 units per milliliter RNase A (Worthington Biochemicals, Freehold, N.J.) for 30 minutes at 37 C. Next, salt solution pH 7.2 (3% w/v PEG 6000, PI 50 micrograms per milliliter, 0.1% v/v TRITON™ X, and 0.4 molar NaCl) was added, and the cells were incubated at 4° C. in the dark for 1 hour before flow cytometry analysis was performed, as described (Douglas et al., 1998, Cytometry 32:57-65; Kawamata et al., 1998, Blood 91:561-569; Pepper et al., 1998, Leuk. Res. 22:439-444).
Rapamycin and, presumably, O-alkylated rapamycin derivatives such as SDZ RAD, block cell cycle progression at the early stage in normal T cells (Terada et al., 1993, J. Cell Physiol. 154:7-15; Flanagan et al., 1993, Ann. N.Y. Acad. Sci. 696:31-37). […] The effect was drug dose and cell-line type dependent. […] Percentages of cells in the later phases of the cell cycle (G2-M and S) were diminished proportionally. A1 and, to a lesser degree, A2D6 cell line were particularly sensitive to SDZ RAD. Four EBV^+ B-cell lines were cultured for 48 hours with 0-10 nanomolar SDZ RAD, labeled with propidium iodine, and analyzed by flow cytometry.
A general note: A flow cytometer gives signals particle by particle.

Experiment [3] concerns PTLD-like EBV+ B cell lines. Nature of the experiment: in vitro cell growth inhibition (3H-thymidine incorporation). The format is cell-based, human. The following applies: for degree of inhibition of growth: 0-10 nanomolar. An excerpt: Most cell lines used in this study were lymphoblastoid B-cell lines obtained by in vitro infection with EBV of peripheral blood mononuclear cells (PBMC). Cell lines A1 and A2D6 were obtained from normal, healthy individuals. Cell lines 15A and 20A were obtained from two different patients with a low grade B-cell lymphoma with monoclonal cold agglutinins (Silberstein et al., 1991, Blood 78:2372-2386). Both lines secreted cold agglutinins with the same specificity as the cold agglutinins found in the patient's serum (Silberstein et al., 1991, Blood 78:2372-2386). […] LCL B-cell line was obtained from a patient with a progressive cutaneous T-cell lymphoproliferative disorder (Zhang et al., 1996, Proc. Natl. Acad. Sci. USA 93:9148-9153). BC-1 is derived from a peritoneal effusion B-cell lymphoma (PEL) and, in addition to EBV, harbors […] virus (Cesarman et al., 1995, Blood 86:2708-2714). The other 3 cell lines used as controls in the in vitro growth inhibition assay were HTLV-I (+) T-cell lines ATL-2 (Maeda et al., 1985, Exp. Med. 162:2169-2174); C10MJ2 (Popovic et al., 1983, Science 219: 856-859); and HUT102B (Poiescz, 1980, Proc. Natl. Acad. Sci. USA 77:7415-7419; Bunn, et al, 1996, J. Cell. Biochem. Suppl 24:12-23) derived from patients with adult T-cell leukemia/lymphoma (ATLL). They were shown by us to be non-responsive to SDZ RAD and the related, immunosuppressive macrolide, rapamycin (Zhang et al., 1999, Leukemia Res. 23:373-384). All cell lines were maintained in humidified incubators at 37° C. in an atmosphere containing 5% CO2 in standard medium: RPMI Medium 1640 (Gibco BRL, Grand Island, N.Y.) supplemented with 10% (v/v) heat inactivated fetal bovine serum (BioWhittaker, Walkersville, Md.), 1% penicillin/streptomycin/fungizone mixture (Gibco BRL), and 2 millimolar L-glutamine (Gibco BRL).
An assay to assess inhibition of in vitro cell growth by SDZ RAD was performed as described (Zhang et al., 1999, Leukemia Res. 23:373-384; Zhang et al., 1996, Proc. Natl. Acad. Sci. USA 93:9148-9153). Briefly, cell lines were cultured for 32 hours in triplicate at 2×10^4 cells per well in the presence of various concentrations of SDZ RAD (Novartis Pharma, Basel). After pulsing the cells with 0.5 microcurie ^3H-thymidine (New England Nuclear, Boston, Mass.) and culturing the cells for the next 18 hours, isotope incorporation into the cells was measured. The results of proliferation assays were expressed as the mean radioactivity of triplicate cultures. Standard deviation within the triplicates was <15%.
In order to determine whether SDZ RAD can inhibit proliferation of cells mimicking PTLDs, 6 different EBV^+ B cell lines were cultured in vitro in the presence of the drug at various concentrations. […]

SMILES strings stand for the structures.

As for `CO[C@H]1C[C@@H]2CC[C@@H](C)[C@@](O)(O2)C(=O)C(=O)N2CCCC[C@H]2C(=O)O[C@H]([C@H](C)C[C@@H]2CC[C@@H](OCCO)[C@H](OC)C2)CC(=O)[C@H](C)/C=C(\C)[C@@H](O)[C@@H](OC)C(=O)[C@H](C)C[C@H](C)/C=C/C=C/C=C/1C` [SDZ RAD, 40-O-(2-hydroxy)ethyl-rapamycin], the “response of cell lines to the drug” value in experiment [1] is “non-responsive”. Further, the “cell cycle progression at the early, G0/G1 phase” value in experiment [2] (all 4 cell lines, 0-10 nanomolar) is reported as “markedly inhibited”. Also, the figures for the “increase in the percentage of cells in G0/G1” value in experiment [2] (highest dose 10 nanomolar) and in experiment [2] (low doses 1-2 nanomolar) were 10-70% and 5-25, respectively. Also, in experiment [3] (1 nanomolar, all EBV+ B cell lines, 32 hours culture then 18 hours 3H-thymidine pulse), the inhibition of growth is reported as 60-95%. Besides, the “sensitivity of cell lines to the drug” value in experiment [3] (all PTLD-like EBV+ B cell lines) is on record as “very sensitive”. The “degree of inhibition of growth” value in experiment [3] (cell lines obtained from normal B cells) is reported as 90-100%; in experiment [3] (lines derived from patients with B-cell lymphomas (15A, 20A and BC-1)) it was 80-90%.
